Our source for the IC50 values is ChEMBL document CHEMBL5390259, “Structure Determination of Kahalalide Analogues Based on Metagenomic Analysis of a Bryopsis sp. Marine Green Alga” (J Nat Prod, 2023).

One may read the IC50 as the concentration that inhibits the measured activity by half. Low values mean inhibition by little substance, high ones a need for much substance.

The data set is described as follows: Cytotoxicity against rat 3Y1 cells incubated for 2 days by MTT assay. It is filed as toxicity, cell-based. A general note: Tetrazolium assays rely on reduction of a dye to a coloured formazan, in cell work by metabolically active cells.

In turn, `C/C=C1\NC(=O)[C@H](Cc2ccccc2)NC(=O)[C@@H]([C@@H](C)CC)NC(=O)[C@@H]([C@@H](C)CC)NC(=O)[C@H](NC(=O)[C@@H](CC(C)C)NC(=O)[C@H](CCCN)NC(=O)[C@H]2CCCN2C(=O)[C@H](NC(=O)[C@@H](NC(=O)[C@@H](NC(=O)[C@H](NC(=O)CCC)[C@@H](C)O)C(C)C)C(C)C)C(C)C)[C@@H](C)OC(=O)[C@H](C(C)C)NC1=O` registered an IC50 at 2 days of 10 µM.

The compound `C/C=C1\NC(=O)[C@H](Cc2ccccc2)NC(=O)[C@@H]([C@@H](C)CC)NC(=O)[C@@H]([C@@H](C)CC)NC(=O)[C@H](NC(=O)[C@@H](CC(C)C)NC(=O)[C@H](CCCN)NC(=O)[C@H]2CCCN2C(=O)[C@H](NC(=O)[C@@H](NC(=O)[C@@H](NC(=O)[C@H](NC(=O)C=C(C)C)[C@@H](C)O)C(C)C)C(C)C)C(C)C)[C@@H](C)OC(=O)[C@H](C(C)C)NC1=O` registered an IC50 at 2 days of 7.4 µM.
